Among the test systems are Pseudomonas putida; Escherichia coli; Saccharomyces cerevisiae; Candida albicans; Serratia marcescens.
Common to all, as to test: ≥ marks a high value that may be exact or a test limit, other limits are often not marked, values filed in µg/mL are converted to µM
Test [1] concerns Aspergillus flavus KCTC 6905.
Test [2] deals with Staphylococcus aureus CCARM 3114.
For test [3], the system named is Trichosporon beigelii KCTC 7707.
Test [4] relates to Escherichia coli CCARM 1229.
Test [5] relates to Pseudomonas aeruginosa 4007.
Test [6] deals with Salmonella typhimurium KCTC 1926.
In test [7] the test system is Escherichia coli CCARM 1238.
The test system of test [8] is Pseudomonas aeruginosa ATCC 15692.
The test system of test [9] is Aspergillus awamori KCTC 6915.
Test [10] deals with Staphylococcus aureus CCARM 3089.
Test [11] has as its system Staphylococcus epidermidis KCTC 3096.
Test [12] concerns Staphylococcus epidermidis ATCC 12228.
The subject of test [13] is Staphylococcus aureus PBEL.
The subject of test [14] is Listeria monocytogenes ATCC 19115.
The subject of test [15] is Proteus vulgaris KCTC 2433.
Test [16] concerns Salmonella typhimurium CCARM 8013.
The test system of test [17] is Pseudomonas aeruginosa KCTC 1637.
Test [18] concerns Pseudomonas aeruginosa 3547.
The subject of test [19] is Candida albicans KCTC 7270.
In test [20] the test system is Aspergillus fumigatus KCTC 6145.
In test [21] the test system is Salmonella typhimurium CCARM 8009.
Test [22] has as its system Bacillus subtilis KCTC 1998.
The subject of test [23] is Aspergillus parasiticus KCTC 6598.
The subject of test [24] is Listeria monocytogenes KCTC 3710.
For test [25], the system named is Bacillus subtilis KCTC 1918.
Test [26] relates to Pseudomonas aeruginosa ATCC 9027.
The subject of test [27] is Micrococcus luteus ATCC 4698.
Test [28] deals with Shigella dysenteriae ATCC 9752.
Test [29] deals with Salmonella enterica subsp. enterica serovar Typhimurium ATCC 14028.
Test [30] deals with Proteus mirabilis ATCC 25933.
The subject of test [31] is Klebsiella pneumoniae ATCC 10031.
The test system of test [32] is Bacillus subtilis KCTC 1021.
Test [33] concerns Pseudomonas aeruginosa ATCC 27853.
Test [34] deals with Enterococcus faecalis WHO 14.
Test [35] has as its system Acinetobacter calcoaceticus ATCC 2305-5.
The test system of test [36] is Yersinia enterocolitica ATCC 9610.
Test [37] relates to Bacillus subtilis ICTA-07.

≈ marks a conversion by molar mass, not a printed value.

`CC[C@H](C)[C@H](NC(=O)[C@H](CCCCN)NC(=O)[C@H](CCCCN)NC(=O)[C@H](C)NC(=O)[C@H](CC(C)C)NC(=O)[C@H](CCCCN)NC(=O)[C@H](CCCCN)NC(=O)[C@H](CC(C)C)NC(=O)[C@H](CCCN=C(N)N)NC(=O)[C@H](CCCCN)NC(=O)[C@H](C)N)C(=O)N[C@@H](Cc1c[nH]c2ccccc12)C(=O)N[C@@H](CCCCN)C(=O)N[C@@H](Cc1c[nH]c2ccccc12)C(=O)N[C@@H](CCCCN)C(N)=O` [AKRLKKLAKKIWKWK]: the MIC in test [1] turned out to be 8 µM (≈ 15.4 µg/mL); in test [2], 4 µM (≈ 7.7 µg/mL); in [3], 16 µM (≈ 30.8 µg/mL); in test [4], 1.41 µM (≈ 2.72 µg/mL); in [5] it was 1 µM (≈ 1.92 µg/mL); in test [6] it was 1.41 µM (≈ 2.72 µg/mL). Besides, the MIC in test [7] came out at 2 µM (≈ 3.85 µg/mL); in [8], 2 µM (≈ 3.85 µg/mL); in test [9], 8 µM (≈ 15.4 µg/mL); in test [10], 2 µM (≈ 3.85 µg/mL); in test [11] it was 2.83 µM (≈ 5.44 µg/mL); in test [12] it was 2.83 µM (≈ 5.44 µg/mL). Moreover, the MIC in test [13] was 1 µM (≈ 1.92 µg/mL); in test [14] it was 2 µM (≈ 3.85 µg/mL); in [15] it was 2.83 µM (≈ 5.44 µg/mL); in test [16], 1 µM (≈ 1.92 µg/mL); in test [17] it was 2 µM (≈ 3.85 µg/mL); in test [18], 2.83 µM (≈ 5.44 µg/mL). The minimal inhibitory concentration (MIC) in [19] was determined as 8 µM (≈ 15.4 µg/mL); in test [20], 4 µM (≈ 7.7 µg/mL); in test [21] it was 2 µM (≈ 3.85 µg/mL); in [22] it was 2 µM (≈ 3.85 µg/mL); in test [23], 8 µM (≈ 15.4 µg/mL); in test [24] it was 2 µM (≈ 3.85 µg/mL). Besides, the MIC in [25] was found to be 2 µM (≈ 3.85 µg/mL).

Take `CC[C@H](C)[C@H](NC(=O)[C@H](CC(C)C)NC(=O)[C@H](CO)NC(=O)[C@H](Cc1ccccc1)NC(=O)[C@H](CC(C)C)NC(=O)[C@@H](N)CO)C(=O)N[C@@H](CCCCN)C(=O)N[C@@H](C)C(=O)NCC(=O)N[C@@H](C)C(=O)N[C@@H](CCCCN)C(=O)N[C@@H](Cc1ccccc1)C(=O)N[C@@H](CC(C)C)C(=O)NCC(=O)N[C@@H](CCCCN)C(=O)N[C@@H](CC(N)=O)C(=O)N[C@@H](CC(C)C)C(=O)N[C@@H](CC(C)C)C(=O)N[C@@H](CCCCN)C(=O)N[C@@H](CCC(N)=O)C(=O)NCC(=O)N[C@@H](C)C(=O)N[C@@H](CS)C(=O)N[C@@H](Cc1ccc(O)cc1)C(=O)N[C@@H](C)C(=O)N[C@@H](C)C(=O)N[C@H]1CSSC[C@@H](C(=O)O)NC(=O)[C@H](CCC(N)=O)NC(=O)[C@H](CCCCN)NC(=O)[C@H](CO)NC(=O)[C@H](C)NC(=O)[C@H](CCCCN)NC1=O` [SLFSLIKAGAKFLGKNLLKQGACYAACKASKQC]: the MIC in [26] is 14.4 µM (≈ 50 µg/mL); in test [27] it was 1.44 µM (≈ 5 µg/mL); with Pseudomonas putida it was 14.4 µM (≈ 50 µg/mL); against Escherichia coli it was 7.22 µM (≈ 25 µg/mL); in test [28] it was 7.22 µM (≈ 25 µg/mL); in test [29], more than 57.8 µM. Further, the MIC with Saccharomyces cerevisiae is not below 57.8 µM; in test [30], not below 57.8 µM; in test [31], 28.9 µM (≈ 99.9 µg/mL); in [12] it was 14.4 µM (≈ 50 µg/mL); in the test on Candida albicans, more than 57.8 µM; in test [32], 14.4 µM (≈ 50 µg/mL). This molecule registered a minimal inhibitory concentration (MIC) against Serratia marcescens not below 57.8 µM.

Take `CC[C@H](C)[C@@H]1NC(=O)[C@H](CCCCN)NC(=O)[C@H](C(C)C)NC(=O)[C@H](CC(N)=O)NC(=O)[C@H](CC(=O)O)NC(=O)[C@@H]2CCCN2C(=O)[C@H](CC(C)C)NC(=O)CNC(=O)[C@H](Cc2ccc(O)cc2)NC(=O)[C@@H]2CSSC[C@@H]3NC(=O)[C@H](CCC(=O)O)NC(=O)[C@H]([C@@H](C)O)NC(=O)[C@H](CC(N)=O)NC(=O)[C@@H]4CSSC[C@H](NC(=O)[C@H](C)NC(=O)[C@@H]5CCCN5C(=O)[C@H](Cc5c[nH]c6ccccc56)NC(=O)[C@H](C)NC(=O)[C@H](CSSC[C@H](NC(=O)[C@H](CO)NC(=O)[C@H](Cc5ccc(O)cc5)NC(=O)[C@H](CCCCN)NC(=O)[C@@H](NC(=O)CNC(=O)[C@H](CCCN=C(N)N)NC(=O)[C@H](Cc5cnc[nH]5)NC(=O)[C@H](CCC(=O)O)NC(=O)[C@@H](NC(=O)[C@@H](NC(=O)[C@H](Cc5ccc(O)cc5)NC(=O)CNC(=O)[C@H](CC(=O)O)NC(=O)[C@@H](N)CCCCN)[C@@H](C)CC)[C@@H](C)CC)CSSC[C@@H](C(N)=O)NC(=O)[C@H](CCCCN)NC(=O)[C@H](CC(C)C)NC(=O)[C@H](CC(N)=O)NC(=O)[C@H](CC(N)=O)NC(=O)[C@H](CO)NC(=O)[C@H](CC(=O)O)NC(=O)[C@H](Cc5ccccc5)NC1=O)C(=O)N[C@@H](Cc1ccccc1)C(=O)N[C@@H](Cc1ccccc1)C(=O)NCC(=O)N[C@@H]([C@@H](C)O)C(=O)N[C@@H](CC(N)=O)C(=O)N[C@@H](CO)C(=O)N[C@@H](Cc1c[nH]c5ccccc15)C(=O)N4)NC(=O)[C@H](Cc1ccc(O)cc1)NC(=O)CNC(=O)[C@H](CO)NC(=O)[C@H](CO)NC(=O)CNC(=O)[C@H](CCCCN)NC(=O)[C@H](CCCCN)NC(=O)[C@H](CC(C)C)NC(=O)[C@H]([C@@H](C)O)NC3=O)C(=O)N[C@@H](Cc1c[nH]c3ccccc13)C(=O)N2` [KDGYIIEHRGCKYSCFFGTNSWCNTECTLKKGSSGYCAWPACWCYGLPDNVKIFDSNNLKC]: the MIC was not below 43 µM in test [27]; 77 µM (≈ 533 µg/mL) in test [33]; not below 34 µM in [34]; not below 43 µM in test [35]; not below 49 µM in test [36]; 22 µM (≈ 152 µg/mL) in test [37].

Values taken from DBAASP.
